Reference: ChEMBL document CHEMBL5576112, “Synthesis, in silico, in vitro evaluation of furanyl- and thiophenyl-3-phenyl-1H-indole-2-carbohydrazide derivatives as tubulin inhibitors and anticancer agents” (RSC Med Chem, 2024)
Activity calls are given as the source filed them. The rule behind the calls is not given here.

Key:
SK-MEL-5 [1] = experiment: Growth inhibition of human SK-MEL-5 cells at 10 uM measured after 48 hrs by sulforhodamine B assay; type: functional, cell-based
SK-MEL-5 [2] = experiment: Growth inhibition of human SK-MEL-5 cells measured after 48 hrs by sulforhodamine B assay; type: functional; details: for CC50: read-out: LC50 (the source's name)
MDA-MB-435 [3] = experiment: Growth inhibition of human MDA-MB-435 cells measured after 48 hrs by sulforhodamine B assay; type: functional; details: for CC50: read-out: LC50 (the source's name)
NCI-H522 [4] = experiment: Growth inhibition of human NCI-H522 cells measured after 48 hrs by sulforhodamine B assay; type: functional; details: for CC50: read-out: LC50 (the source's name)
NCI-H522 [5] = experiment: Growth inhibition of human NCI-H522 cells at 10 uM measured after 48 hrs by sulforhodamine B assay; type: functional, cell-based
COLO 205 [6] = experiment: Growth inhibition of human COLO 205 cells at 10 uM measured after 48 hrs by sulforhodamine B assay; type: functional, cell-based
COLO 205 [7] = experiment: Growth inhibition of human COLO 205 cells measured after 48 hrs by sulforhodamine B assay; type: functional; details: for CC50: read-out: LC50 (the source's name)
MDA-MB-435 [8] = experiment: Growth inhibition of human MDA-MB-435 cells at 10 uM measured after 48 hrs by sulforhodamine B assay; type: functional, cell-based
MCF7 [9] = experiment: Growth inhibition of human MCF7 cells at 10 uM measured after 48 hrs by sulforhodamine B assay; type: functional, cell-based
UACC-62 [10] = experiment: Growth inhibition of human UACC-62 cells at 10 uM measured after 48 hrs by sulforhodamine B assay; type: functional, cell-based
Sus scrofa = organism: Sus scrofa; experiment: Inhibition of porcine brain tubulin polymerization assessed as microtubule destabilization by measuring relative fluorescence unit at 10 uM measured at 60 secs interval for 60 mins in presence of GTP by fluorescence assay
OVCAR-8 [11] = experiment: Growth inhibition of human OVCAR-8 cells at 10 uM measured after 48 hrs by sulforhodamine B assay; type: functional, cell-based
UACC-62 [12] = experiment: Growth inhibition of human UACC-62 cells measured after 48 hrs by sulforhodamine B assay; type: functional
MCF7 [13] = experiment: Growth inhibition of human MCF7 cells measured after 48 hrs by sulforhodamine B assay; type: functional
K562 [14] = experiment: Growth inhibition of human K562 cells measured after 48 hrs by sulforhodamine B assay; type: functional
OVCAR-8 [15] = experiment: Growth inhibition of human OVCAR-8 cells measured after 48 hrs by sulforhodamine B assay; type: functional
K562 [16] = experiment: Growth inhibition of human K562 cells at 10 uM measured after 48 hrs by sulforhodamine B assay; type: functional, cell-based
[17] = read-out: LC50 (the source's name)

SMILES | growth inhibition (GI) (SK-MEL-5 [1]) | growth inhibition (GI) (SK-MEL-5 [2]) | growth inhibition (GI) (MDA-MB-435 [3]) | growth inhibition (GI) (NCI-H522 [4]) | growth inhibition (GI) (NCI-H522 [5]) | growth inhibition (GI) (COLO 205 [6]) | growth inhibition (GI) (COLO 205 [7]) | growth inhibition (GI) (MDA-MB-435 [8]) | CC50 (SK-MEL-5 [2]) [nM] | CC50 (MDA-MB-435 [3]) [nM] | CC50 (NCI-H522 [4]) [nM] | CC50 (COLO 205 [7]) [nM] | GI50 (SK-MEL-5 [2]) [nM] | GI50 (MDA-MB-435 [3]) [nM] | GI50 (NCI-H522 [4]) [nM] | GI50 (COLO 205 [7]) [nM] | further results
O=C(N/N=C/c1ccc(-c2ccc(O)cc2)s1)c1[nH]c2ccc(Br)cc2c1-c1ccccc1 | Active | Active | Active | Active | Active | Active | Active | Active |  |  |  |  |  |  |  |  | 
O=C(N/N=C/c1cccs1)c1[nH]c2ccc(Br)cc2c1-c1ccccc1 | Active | Active | Active | Active | Active | Active | Active | Active | > 10000 | > 10000 | > 10000 | > 10000 |  |  |  |  | 
O=C(N/N=C/c1ccsc1)c1[nH]c2ccc(Br)cc2c1-c1ccccc1 | Active |  |  |  | Active | Active |  | Active | > 10000 | > 10000 | > 10000 | > 10000 | > 100 | 78.9 | > 100 | > 100 | 
O=C(N/N=C/c1ccc(-c2cccc([N+](=O)[O-])c2)o1)c1[nH]c2ccc(Br)cc2c1-c1ccccc1 |  |  |  |  | Active |  |  |  |  |  | 9130 |  |  |  |  |  | 
O=C(N/N=C/c1ccc(B(O)O)s1)c1[nH]c2ccc(Br)cc2c1-c1ccccc1 | Active |  |  |  | Active | Active |  | Active |  |  |  | 4980 | > 100 | > 100 | > 100 | > 100 | 
O=C(N/N=C/c1ccc([N+](=O)[O-])o1)c1[nH]c2ccc(Br)cc2c1-c1ccccc1 | Active |  |  |  | Active | Active |  | Active | 2620 | 734 | 5390 | 1790 | 213 | 80.8 | 37.4 | 233 | growth inhibition (GI) (MCF7 [9]): Active; growth inhibition (GI) (UACC-62 [10]): Active; RFU (Sus scrofa): 45 a.u.; growth inhibition (GI) (OVCAR-8 [11]): Active; GI50 (UACC-62 [12]): 73.1 nM; CC50 (UACC-62 [12]; [17]): 5290 nM; GI50 (MCF7 [13]): 44.3 nM; LC50 (MCF7 [13]): > 100000 nM; GI50 (K562 [14]): 54 nM; CC50 (K562 [14]; [17]): > 100000 nM; GI50 (OVCAR-8 [15]): 184 nM; CC50 (OVCAR-8 [15]; [17]): 4190 nM; growth inhibition (GI) (K562 [16]): Active
O=C(O)c1ccc(-c2ccc(/C=N/NC(=O)c3[nH]c4ccc(Br)cc4c3-c3ccccc3)s2)cc1 | Active | Active | Active | Active | Active | Active | Active | Active |  |  |  |  |  |  |  |  | 
